Source: patent US20200087258A1, “INHIBITOR OF CITRATE TRANSPORTER AND THEIR USE IN THERAPY” (Eternygen GmbH, priority 2017, published 2020)

Assays:
[1] = target: T1, INDY (Homo sapiens, UniProt Q86YT5); assay: 14C-citrate uptake in HepG2 cells endogenously expressing INDY (NaCT); format: cell-based; settings: endogenous INDY
Procedure: (§1) The compound was obtained by screening of a library containing more than 50,000 lead-like compounds and fragments. The library was tested using a functional citrate uptake assay with HEK293 cells overexpressing recombinant human INDY. The following hit confirmation was conducted in the same assay system. To confirm the activity of selected compounds on the target INDY another cell assay was conducted. In this assay system citrate uptake was measured using HepG2 cells which endogenously express INDY. Furthermore selectivity of selected compounds was tested for two other transporters in different assay systems. The first transporter was the glutamate transporter GLT-1 tested in a glutamate uptake assays using HEK293 cells overexpressing recombinant human GLT-1. The second transporter was the glucose transporter GLUT1 tested in a glucose uptake assay using Huh-7 cells which endogenously express GLUT1. Compounds were considered to be selective with an at least 5-fold higher activity for INDY than for the other two transporters.
(§2) Cells were maintained in cell medium using cell culture grade flasks (CellSTACK Corning, 500 cm2 dishes or T175 depending on cell number). The selection antibiotic and G418 (800 μg/ml) was added during cultivation but not for seeding into assay plates. For splitting, cells were washed with PBS (w/o Ca2+, Mg2+, phenol red) and detached with Trypsin/EDTA. Throughout cultivation cells were kept sub-confluent. Detached cells (50,000 cells/well) were seeded in 96-well plates (white, clear bottom from Corning #655098) and incubated over night before usage in the assay. The following media were used. For HEK293 cells expressing INDY MEM (PAA)+10% FCS+1×P/S+2 mM L-Gln; for HEK293 cells expressing GLT-1 DMEM (Gibco)+10% FCS+400 µg/ml G418; for Huh7 cells DMEM (Gibco)+10% FCS+2 mM L-Gin (+1×P/S); for HepG2 cells MEM (PAA, Cat # E15-024)+10% FCS+2 mM L-Gin+1×NEAA+1 mM Na-Pyruvat
(§3) The following assay buffers for the particular uptake reaction were used. Citrate uptake buffer: 120 mM NaCl, 5.4 mM KCl, 0.8 mM MgSO4, 5 mM glucose, 1.8 mM CaCl2, 25 mM Hepes, 25 mM MES, pH 6.5. Glutamate uptake buffer: HBSS, 1 mM CaCl2, 1 mM MgCl2, 20 mM Hepes pH 7.4. Glucose uptake buffer: 25 mM Hepes+25 mM MES pH 7.4, 120 mM NaCl, 5.4 mM KCl, 1.8 mM CaCl2, 0.8 mM MgSO4.
INDY mediated citrate uptake was also determined in HepG2 cells. To determine the uptake of ^14C labelled citrate into cells, HepG2 cells endogenously expressing human NaCT were used. (Gopal et al. 2007 Am J Physiol Gastrointest Liver Physiol 292).
HepG2 cells were seeded into white clear-bottom 96-well plates (50,000/well) coated with collagen and incubated at 37° C. for 16-24 hours. After that plates were washed once with assay buffer using automated washing/LS 405 Selectors, BioTek ending with a buffer volume of 40 μl. Then 5 μl of compound solution in assay buffer was added and incubated for 5 min at 37° C. in cell incubator, HERA cell Heraeus. Afterwards 10 μl of substrate 14C-citrate (10 nM) were added and incubated for another 90 min at 37° C. in cell incubator, HERAcell. Then plates were washed 3× with 200 μl buffer and […] cell lysis induced by adding 50 μl ice-cold NaOH (100 mM). Plates were incubated for 25 min at RT on a plate shaker and afterwards 200 μl scintillation fluid was added and incubated for 15 min on a plate shaker at RT and for another 15 min without shaking at RT. Plates were measured using a TopCount system. As a positive control 5 mM citrate was applied. It is possible to use this assay also in analogy in a 384-well plate format.

[2] = target: T1, INDY; assay: 14C-citrate uptake in HEK293 cells overexpressing recombinant human INDY (NaCT); format: cell-based; parameters: expressed in transfected cells; host or cells: HEK293
Procedure: as §1, §2, §3
INDY mediated citrate uptake was determined in HEK293 cells. To determine the uptake of ^14C labelled citrate into cells, HEK293 cells over-expressing human NaCT were used. Cloning of human NaCT was done in analogy as described in Birkenfeld et al. (Birkenfeld et al., 2011, Cell Metabolism 14, 184-195, 2011).
Human NaCT HEK293 cells were seeded into white clear-bottom 96-well plates (50,000/well) in the presence of 4 μg/ml Poly-D-Lysine and incubated at 37° C. for 16-24 hours. On the days of the assay the plates were washed once with assay buffer using automated washing/LS 405 Selectors, BioTek ending with a buffer volume of 40 μl. Then 5 μl of compound solution in assay buffer was added and incubated for 5-30 min at 37° C. in cell incubator, HERA cell Heraeus. Afterwards 10 μl of substrate 14C-citrate ([…]/[…] per well) were added and incubated for another 20-90 min at 37° C. in cell incubator, HERAcell. Then plates were washed twice with 200 μl ice-cold assay buffer and residual volume was discarded. For cell lysis 50 μl ice-cold NaOH (100 mM) was added and incubated for 15 minutes at RT on a plate shaker. Finally, 200 μl scintillation fluid (scintillator OptiPhase Supermix, Perkin Elmer) was added. After 15 min incubation at RT without shaking, plates were measured using a TopCount reader system (Perkin Elmer). As a positive control 10 mM citrate was applied. It is possible to use this assay also in analogy in a 384-well plate format.

T1 sequence (Q86YT5 whole entry, the tested form may be a part): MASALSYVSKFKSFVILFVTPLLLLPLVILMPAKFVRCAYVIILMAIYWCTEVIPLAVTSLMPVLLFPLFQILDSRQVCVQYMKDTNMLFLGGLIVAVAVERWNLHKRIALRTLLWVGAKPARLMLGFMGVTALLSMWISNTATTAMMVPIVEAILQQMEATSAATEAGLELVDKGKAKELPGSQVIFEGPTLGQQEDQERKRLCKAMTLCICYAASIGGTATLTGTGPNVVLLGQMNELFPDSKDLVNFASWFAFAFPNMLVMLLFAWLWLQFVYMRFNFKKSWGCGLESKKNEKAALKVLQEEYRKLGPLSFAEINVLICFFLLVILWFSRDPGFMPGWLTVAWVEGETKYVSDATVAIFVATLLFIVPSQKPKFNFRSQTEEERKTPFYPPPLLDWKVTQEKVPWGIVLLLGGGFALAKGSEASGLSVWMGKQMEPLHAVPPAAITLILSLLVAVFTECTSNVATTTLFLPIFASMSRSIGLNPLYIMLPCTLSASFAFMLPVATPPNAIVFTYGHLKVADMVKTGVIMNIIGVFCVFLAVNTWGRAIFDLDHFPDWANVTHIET

IC50 [1] [nM]	IC50 [2] [nM]	SMILES
> 50000		O=C(NCc1ccccc1F)C1CCN(S(=O)(=O)C2=Cc3ccccc3OC2)CC1 [Example 9, 1-(2H-chromene-3-sulfonyl)-N-[(2-fluorophenyl)methyl]piperidine-4-carboxamide]
> 50000		O=S(=O)(/C=C/c1ccccc1)N1CCC(CNCc2ccccc2F)CC1 [Example 10, [(2-fluorophenyl)methyl]({1-[(E)-phenylethenesulfonyl]piperidin-4-yl}methyl)amine]
2700	2900	COc1ccccc1CNC(=O)C1CCN(S(=O)(=O)/C=C/c2ccccc2)CC1 [Example 15, N-[(2-methoxyphenyl)methyl]-1-[(E)-2-phenylethenesulfonyl]piperidine-4-carboxamide]
1500	1400	COc1cccc(S(=O)(=O)N2CCC(C(=O)NCc3ccccc3F)CC2)c1 [Example 16, N-[(2-fluorophenyl)methyl]-1-(3-methoxybenzenesulfonyl)piperidine-4-carboxamide]
3400	5000	COc1ccccc1S(=O)(=O)N1CCC(C(=O)NCc2ccccc2F)CC1 [Example 19, N-[(2-fluorophenyl)methyl]-1-(2-methoxybenzenesulfonyl)piperidine-4-carboxamide]
> 20000	7400	O=C(NCc1cccc(F)c1)C1CCN(S(=O)(=O)/C=C/c2ccccc2)CC1 [Example 21, N-[(3-fluorophenyl)methyl]-1-[(E)-2-phenylethenesulfonyl]piperidine-4-carboxamide]
7000	3400	O=C(NCc1cccc(F)c1F)C1CCN(S(=O)(=O)/C=C/c2ccccc2)CC1 [Example 22, N-[(2,3-difluorophenyl)methyl]-1-[(E)-2-phenylethenesulfonyl]piperidine-4-carboxamide]
> 20000	4600	O=C(NCc1cc(F)ccc1F)C1CCN(S(=O)(=O)/C=C/c2ccccc2)CC1 [Example 23, N-[(2,5-difluorophenyl)methyl]-1-[(E)-2-phenylethenesulfonyl]piperidine-4-carboxamide]
4200	9300	CC(C)Oc1ccc(S(=O)(=O)N2CCC(C(=O)NCc3ccccc3F)CC2)cc1 [Example 24, N-[(2-fluorophenyl)methyl]-1-[4-(propan-2-yloxy)benzenesulfonyl]piperidine-4-carboxamide]
15900	5200	O=C(NCc1ccccc1F)C1CCN(S(=O)(=O)c2ccc3c(c2)OCO3)CC1 [Example 26, 1-(2H-1,3-benzodioxole-5-sulfonyl)-N-[(2-fluorophenyl)methyl]piperidine-4-carboxamide]
2400	3000	O=C(NCc1ccccc1F)C1CCN(S(=O)(=O)c2ccc(Cl)cc2)CC1 [Example 27, 1-(4-chlorobenzenesulfonyl)-N-[(2-fluorophenyl)methyl]piperidine-4-carboxamide]
15700	> 20000	O=C(NCc1ccccc1F)C1CCN(S(=O)(=O)c2ccc(Cl)c(Cl)c2)CC1 [Example 28, 1-(3,4-dichlorobenzenesulfonyl)-N-[(2-fluorophenyl)methyl]piperidine-4-carboxamide]
800	800	O=C(NCc1ccccc1F)C1CCN(S(=O)(=O)c2ccc(-c3ccccc3)cc2)CC1 [Example 30, 1-{[1,1′-biphenyl]-4-sulfonyl}-N-[(2-fluorophenyl)methyl]piperidine-4-carboxamide]
6700	5100	O=C(NCc1ccccc1Br)C1CCN(S(=O)(=O)/C=C/c2ccccc2)CC1 [Example 32, N-[(2-bromophenyl)methyl]-1-[(E)-2-phenylethenesulfonyl]piperidine-4-carboxamide]
1000	500	CC(C)(C)c1cccc(S(=O)(=O)N2CCC(C(=O)NCc3ccccc3F)CC2)c1 [Example 33, 1-(3-tert-butylbenzenesulfonyl)-N-[(2-fluorophenyl)methyl]piperidine-4-carboxamide]
4500	1000	CCc1ccc(S(=O)(=O)N2CCC(C(=O)NCc3ccccc3F)CC2)cc1 [Example 34, 1-(4-ethylbenzenesulfonyl)-N-[(2-fluorophenyl)methyl]piperidine-4-carboxamide]
2900	1500	Cc1ccc(S(=O)(=O)N2CCC(C(=O)NCc3ccccc3F)CC2)cc1 [Example 35, N-[(2-fluorophenyl)methyl]-1-(4-methylbenzenesulfonyl)piperidine-4-carboxamide]
1000	1000	O=C(NCc1ccccc1F)C1CCN(S(=O)(=O)c2ccc(I)cc2)CC1 [Example 36, N-[(2-fluorophenyl)methyl]-1-(4-iodobenzenesulfonyl)piperidine-4-carboxamide]
800	300	COc1ccccc1CNC(=O)C1CCN(S(=O)(=O)c2ccc(C(C)(C)C)cc2)CC1 [Example 38, 1-(4-tert-butylbenzenesulfonyl)-N-[(2-methoxyphenyl)methyl]piperidine-4-carboxamide]
2100	200	CC(C)(C)c1ccc(S(=O)(=O)N2CCC(C(=O)NCc3ccccc3Cl)CC2)cc1 [Example 39, 1-(4-tert-butylbenzenesulfonyl)-N-[(2-chlorophenyl)methyl]piperidine-4-carboxamide]
3200	1800	O=C(NCc1ccccc1O)C1CCN(S(=O)(=O)/C=C/c2ccccc2)CC1 [Example 41, N-[(2-hydroxyphenyl)methyl]-1-[(E)-2-phenylethenesulfonyl]piperidine-4-carboxamide]
400	300	O=C(NCc1ccccc1F)C1CCN(S(=O)(=O)c2ccc(Cl)cc2Cl)CC1 [Example 43, 1-(2,4-dichlorobenzenesulfonyl)-N-[(2-fluorophenyl)methyl]piperidine-4-carboxamide]
9300	9300	CC(C)(C)c1ccc(S(=O)(=O)N2CC(C(=O)NCc3ccccc3F)C2)cc1 [Example 46, 1-(4-tert-butylbenzenesulfonyl)-N-[(2-fluorophenyl)methyl]azetidine-3-carboxamide]
700	700	O=C(NCc1ccccc1F)C1CCN(S(=O)(=O)c2ccc3c(c2)OC(F)(F)O3)CC1 [Example 47, 1-[(2,2-difluoro-2H-1,3-benzodioxol-5-yl)sulfonyl]-N-[(2-fluorophenyl)methyl]piperidine-4-carboxamide]
